In patent US9233921B2, “Potent poxvirus inhibitor” (priority 2013, dated 2016):
Read-outs that look alike come from different tables or passages of the source.

Assays:
vaccinia virus = test: microbe, parasite or virus in culture; assay type: cell-based, Vaccinia virus (WR strain)
Cytotoxicity (CC50) = details: African green monkey, BSC-1 cells
[1] = Orthopoxvirus vaccinia, BSC-1, read-out: IC50 (antiviral)

3-((3,5-Dichlorophenyl)thio)-6-methyl-1H-indole-2-carboxylate [Compound 27]
IC50 (antiviral) (vaccinia virus): loss of activity

Cc1ccc2c(Sc3ccc(Cl)cc3)c(C(=O)O)[nH]c2c1 [Compound 1, 3-((4-Chlorophenyl)thio)-6-methyl-1H-indole-2-carboxylic acid]
IC50 (vaccinia virus; Orthopoxvirus vaccinia): 82 µM | IC50 (vaccinia virus; [1]): 82 µM | CC50 (Cytotoxicity (CC50)): 192 µM

Cc1cccc2[nH]c(C(=O)O)c(Sc3ccc(Cl)cc3)c12 [Compound 1a, 3-((4-Chlorophenyl)thio)-4-methyl-1H-indole-2-carboxylic acid]
IC50 (vaccinia virus; [1]): 46 to 86 µM | IC50 (vaccinia virus; read-out: IC50 (antiviral)): 86 µM

Cc1ccc2[nH]c(C(=O)O)c(Sc3ccc(Cl)cc3)c2c1 [Compound 1b, 3-((4-Chlorophenyl)thio)-5-methyl-1H-indole-2-carboxylic acid]
IC50 (vaccinia virus; [1]): 46 to 86 µM | IC50 (vaccinia virus; read-out: IC50 (antiviral)): 46 µM | CC50 (Cytotoxicity (CC50)): 136 µM

Cc1cccc2c(Sc3ccc(Cl)cc3)c(C(=O)O)[nH]c12 [Compound 1c, 3-((4-Chlorophenyl)thio)-7-methyl-1H-indole-2-carboxylic acid]
IC50 (vaccinia virus; [1]): 46 to 86 µM | IC50 (vaccinia virus; read-out: IC50 (antiviral)): 74 µM

O=C(O)c1[nH]c2ccccc2c1Sc1ccc(Cl)cc1 [Compound 1d, 3-(4-Chlorophenylthio)-1H-indole-2-carboxylic acid]
IC50 (antiviral) (vaccinia virus): loss of activity

O=C(O)c1[nH]c2cc(Cl)ccc2c1Sc1ccc(Cl)cc1 [Compound 1e, 6-Chloro-3-((4-chlorophenyl)thio)-1H-indole-2-carboxylic acid]
IC50 (vaccinia virus; [1]): 40 to 51 µM | IC50 (vaccinia virus; read-out: IC50 (antiviral)): 47 µM | CC50 (Cytotoxicity (CC50)): 138 µM

O=C(O)c1[nH]c2cc(Br)ccc2c1Sc1ccc(Cl)cc1 [Compound 1f, 6-Bromo-3-((4-chlorophenyl)thio)-1H-indole-2-carboxylic acid]
IC50 (vaccinia virus; [1]): 40 to 51 µM | IC50 (vaccinia virus; read-out: IC50 (antiviral)): 51 µM | CC50 (Cytotoxicity (CC50)): 90 µM

O=C(O)c1[nH]c2cc(F)ccc2c1Sc1ccc(Cl)cc1 [Compound 1g, 6-Fluoro-3-((4-chlorophenyl)thio)-1H-indole-2-carboxylic acid]
IC50 (vaccinia virus; [1]): 40 to 51 µM | IC50 (vaccinia virus; read-out: IC50 (antiviral)): 40 µM

CCc1ccc2c(Sc3ccc(Cl)cc3)c(C(=O)O)[nH]c2c1 [Compound 1h, 3-((4-Chlorophenyl)thio)-6-ethyl-1H-indole-2-carboxylic acid]
IC50 (vaccinia virus; [1]): 36 µM

COc1cccc2[nH]c(C(=O)O)c(Sc3ccc(Cl)cc3)c12 [Compound 1i, 3-((4-Chlorophenyl)thio)-4-methoxy-1H-indole-2-carboxylic acid]
IC50 (antiviral) (vaccinia virus): loss of activity

Cc1ccc(C)c2c(Sc3ccc(Cl)cc3)c(C(=O)O)[nH]c12 [Compound 1j, 3-((4-chlorophenyl)thio)-4,7-dimethyl-1H-indole-2-carboxylic acid]
IC50 (vaccinia virus; [1]): 50 µM | CC50 (Cytotoxicity (CC50)): 109 µM

Cc1ccc2c(c1)c(Sc1ccc(Cl)cc1)c(C(=O)O)n2C [Compound 2, 3-((4-Chlorophenyl)thio)-1,5-dimethyl-1H-indole-2-carboxylic acid]
IC50 (vaccinia virus; [1]): 135 µM

CCn1c(C(=O)O)c(Sc2ccc(Cl)cc2)c2cc(C)ccc21 [Compound 3, 3-((4-Chlorophenyl)thio)-1-ethyl-5-methyl-1H-indole-2-carboxylic acid]
fold improvement in activity over the corresponding R1 methyl analogs 2 and 4 (vaccinia virus): 1.5 fold | IC50 (vaccinia virus; [1]): 86 µM

COC(=O)c1c(Sc2ccc(Cl)cc2)c2cc(C)ccc2n1C [Compound 4, Methyl 3-((4-chlorophenyl)thio)-1,5-dimethyl-1H-indole-2-carboxylate]
IC50 (vaccinia virus; [1]): 163 µM

CCn1c(C(=O)OC)c(Sc2ccc(Cl)cc2)c2cc(C)ccc21 [Compound 5, Methyl 3-((4-chlorophenyl)thio)-1-ethyl-5-methyl-1H-indole-2-carboxylate]
fold improvement in activity of 5 over 3 (vaccinia virus): 2 fold | fold improvement in activity over the corresponding R1 methyl analogs 2 and 4 (vaccinia virus): 4 fold | IC50 (vaccinia virus; [1]): 39 µM

COC(=O)c1[nH]c2cc(C)ccc2c1Sc1ccc(Cl)cc1 [Compound 6, Methyl 3-((4-chlorophenyl)thio)-6-methyl-1H-indole-2-carboxylate]
IC50 (vaccinia virus; [1]): 19 µM | CC50 (Cytotoxicity (CC50)): 61 µM

COC(=O)c1[nH]c2c(C)cccc2c1Sc1ccc(Cl)cc1 [Compound 8, Methyl 3-((4-chlorophenyl)thio)-7-methyl-1H-indole-2-carboxylate]
IC50 (vaccinia virus; [1]): 23 µM | CC50 (Cytotoxicity (CC50)): 32 µM

COC(=O)c1[nH]c2cccc(C)c2c1Sc1ccc(Cl)cc1 [Compound 9, Methyl 3-((4-chlorophenyl)thio)-4-methyl-1H-indole-2-carboxylate]
IC50 (vaccinia virus; [1]): 21 µM

Cc1ccc2c(Sc3ccccc3)c(C(=O)O)[nH]c2c1 [Compound 18, 6-Methyl-3-(phenylthio)-1H-indole-2-carboxylic acid]
IC50 (antiviral) (vaccinia virus): abolished its antiviral activity

Cc1ccc2c(Sc3cccc(Cl)c3)c(C(=O)O)[nH]c2c1 [Compound 18a, 3-((3-Chlorophenyl)thio)-6-methyl-1H-indole-2-carboxylic acid]
IC50 (vaccinia virus; [1]): 51 µM

Cc1ccc2c(Sc3cccc(F)c3)c(C(=O)O)[nH]c2c1 [Compound 18b, 3-((3-Fluorophenyl)thio)-6-methyl-1H-indole-2-carboxylic acid]
IC50 (vaccinia virus; [1]): 56 µM | IC50 (vaccinia virus; read-out: IC50 (antiviral)): 69 µM

Cc1ccc2c(Sc3ccc(Br)cc3)c(C(=O)O)[nH]c2c1 [Compound 18c, 3-((4-Bromophenyl)thio)-6-methyl-1H-indole-2-carboxylic acid]
IC50 (antiviral) (vaccinia virus): loss of activity | CC50 (Cytotoxicity (CC50)): 133 µM

Cc1ccc(Sc2c(C(=O)O)[nH]c3cc(C)ccc23)cc1 [Compound 18d, 6-Methyl-3-(p-tolylthio)-1H-indole-2-carboxylic acid]
IC50 (antiviral) (vaccinia virus): failed to show antiviral activities

COc1ccc(Sc2c(C(=O)O)[nH]c3cc(C)ccc23)cc1 [Compound 18e, 3-((4-Methoxyphenyl)thio)-6-methyl-1H-indole-2-carboxylic acid]
IC50 (antiviral) (vaccinia virus): failed to show antiviral activities

Cc1ccc2c(Sc3ccc(C(=O)O)cc3)c(C(=O)O)[nH]c2c1 [Compound 18f, 3-((4-Carboxyphenyl)thio)-6-methyl-1H-indole-2-carboxylic acid]
IC50 (antiviral) (vaccinia virus): loss of activity

Cc1ccc2c(Sc3ccc(C(F)(F)F)cc3)c(C(=O)O)[nH]c2c1 [Compound 18g, 6-Methyl-3-((4-(trifluoromethyl)phenyl)thio)-1H-indole-2-carboxylic acid]
IC50 (vaccinia virus; [1]): 33 µM | CC50 (Cytotoxicity (CC50)): 137 µM

COc1ccc(Sc2c(C(=O)O)[nH]c3cccc(C)c23)cc1 [Compound 19, 3-((4-Methoxyphenyl)thio)-4-methyl-1H-indole-2-carboxylic acid]
IC50 (antiviral) (vaccinia virus): failed to show antiviral activities

Cc1ccc(Sc2c(C(=O)O)[nH]c3cccc(C)c23)cc1 [Compound 19a, 4-Methyl-3-(p-tolylthio)-1H-indole-2-carboxylic acid]
IC50 (antiviral) (vaccinia virus): failed to show antiviral activities

COC(=O)c1ccc(Sc2c(C(=O)O)[nH]c3cccc(C)c23)cc1 [Compound 19b, 3-((4-(Methoxycarbonyl)phenyl)thio)-4-methyl-1H-indole-2-carboxylic acid]
IC50 (antiviral) (vaccinia virus): failed to show antiviral activities

Cc1cccc2[nH]c(C(=O)O)c(Sc3ccc([N+](=O)[O-])cc3)c12 [Compound 19c, 4-Methyl-3-((4-nitrophenyl)thio)-1H-indole-2-carboxylic acid]
IC50 (antiviral) (vaccinia virus): loss of activity

Cc1ccc2c(Sc3ccc(Cl)cc3Cl)c(C(=O)O)[nH]c2c1 [Compound 20, 3-((2,4-Dichlorophenyl)thio)-6-methyl-1H-indole-2-carboxylic acid]
fold activity improvement over the parent 1 (vaccinia virus): 2-11 fold | CC50 (Cytotoxicity (CC50)): 129 µM

Cc1ccc2c(Sc3ccc(Cl)c(Cl)c3)c(C(=O)O)[nH]c2c1 [Compound 21, 3-((3,4-Dichlorophenyl)thio)-6-methyl-1H-indole-2-carboxylic acid]
fold activity improvement over the parent 1 (vaccinia virus): 2-11 fold | CC50 (Cytotoxicity (CC50)): 76 µM

Cc1cccc2c(Sc3ccc(Cl)c(Cl)c3)c(C(=O)O)[nH]c12 [Compound 22, 3-((3,4-Dichlorophenyl)thio)-7-methyl-1H-indole-2-carboxylic acid]
fold activity improvement over the parent 1 (vaccinia virus): 2-11 fold | CC50 (Cytotoxicity (CC50)): 150 µM

CCc1ccc2c(Sc3ccc(Cl)c(Cl)c3)c(C(=O)O)[nH]c2c1 [Compound 23, 3-((3,4-Dichlorophenyl)thio)-6-ethyl-1H-indole-2-carboxylic acid]
IC50 (vaccinia virus; [1]): 42 µM

Cc1ccc2c(Sc3cc(Cl)cc(Cl)c3)c(C(=O)O)[nH]c2c1 [Compound 24, 3-((3,5-Dichlorophenyl)thio)-6-methyl-1H-indole-2-carboxylic acid]
SI (selectivity index = CC50/IC50) (vaccinia virus): 11 | fold activity improvement over the parent 1 (vaccinia virus): 2-11 fold | IC50 (vaccinia virus; Orthopoxvirus vaccinia): 7 µM | IC50 (vaccinia virus; [1]): 7 to 37 µM | CC50 (Cytotoxicity (CC50)): 75 µM

CCc1ccc2c(Sc3cc(Cl)cc(Cl)c3)c(C(=O)O)[nH]c2c1 [Compound 25, 3-((3,5-Dichlorophenyl)thio)-6-ethyl-1H-indole-2-carboxylic acid]
IC50 (vaccinia virus; [1]): 9 µM | CC50 (Cytotoxicity (CC50)): 63 µM

O=C(O)c1[nH]c2ccccc2c1Sc1cc(Cl)cc(Cl)c1 [Compound 26, 3-((3,5-Dichlorophenyl)thio)-1H-indole-2-carboxylic acid]
fold decrease in activity compared to 24 (vaccinia virus): ~6 fold | IC50 (vaccinia virus; [1]): 43 µM | CC50 (Cytotoxicity (CC50)): 133 µM

CNC(=O)c1[nH]c2cc(C)ccc2c1Sc1cc(Cl)cc(Cl)c1 [Compound 28, 3-((3,5-Dichlorophenyl)thio)-N,6-dimethyl-1H-indole-2-carboxamide]
IC50 (antiviral) (vaccinia virus): loss of activity

Cc1ccc2c(Sc3cc(Cl)c(Cl)cc3Cl)c(C(=O)O)[nH]c2c1 [Compound 30, 6-Methyl-3-((2,4,5-trichlorophenyl)thio)-1H-indole-2-carboxylic acid]
IC50 (vaccinia virus; [1]): 25 µM | CC50 (Cytotoxicity (CC50)): 78 µM

Cc1cccc2c(Sc3cc(Cl)c(Cl)cc3Cl)c(C(=O)O)[nH]c12 [Compound 30a, 7-Methyl-3-((2,4,5-trichlorophenyl)thio)-1H-indole-2-carboxylic acid]
IC50 (vaccinia virus; [1]): 21 µM | CC50 (Cytotoxicity (CC50)): 93 µM

Cc1ccc2c(Sc3ccc(C(F)(F)F)cc3[N+](=O)[O-])c(C(=O)O)[nH]c2c1 [Compound 31, 6-Methyl-3-((2-nitro-4-(trifluoromethyl)phenyl)thio)-1H-indole-2-carboxylic acid]
IC50 (antiviral) (vaccinia virus): loss of activity
